US20260090997A1, “Lipid Nanoparticles Comprising Nucleic Acids Encoding Therapeutic Genes and Uses in Medical Methods” (priority 2022, published 2026)

Tested on: FADU xenografts
Experiment: Intratumoral NanoLuc mRNA delivery into FADU xenografts, bioluminescence
Format: in vivo, Nu/J mice
Details: LNPs containing MC3, cKK-E12, SM-102 or C12-200
Excerpt: FIG. 5A illustrates different LNPs formulated to carry NanoLuc reporter mRNA to evaluate effective intratumoral injections into FADU xenografts. To identify the most suitable ionizable lipid for intratumoral delivery, an in vivo imaging system was used to quantify the bioluminescence resulting from the functional delivery of NanoLuc mRNA using LNPs containing four different ionizable lipids: MC3, cKK-E12, SM-102, and C12-200.

With `CCCCCCCCCCC(O)CN(CCN1CCN(CCN(CC(O)CCCCCCCCCC)CC(O)CCCCCCCCCC)CC1)CCN(CC(O)CCCCCCCCCC)CC(O)CCCCCCCCCC` (stereo not shown) [C12-200] the “bioluminescence from functional delivery of NanoLuc mRNA, comparison of ionizable lipids” value was “optimal ionizable lipid”.
